Results on 2 molecules are retold here after patent US9174965B2, “Pyrimidinylpiperidinyloxypyridone analogues as GPR119 modulators” (BRISTOL-MYERS SQUIBB COMPANY, priority 2012, dated 2015).

One series addresses hERG (Homo sapiens (Human), UniProt Q12809). The series can be described thus: Patch clamp electrophysiology assay, hERG. The class given is cell-based. As to conditions: HEK293 cells stably expressing hERG, pH 7.4. The procedure: Compound Electrophysiology Assays
Recombinant ion channels (hERG, sodium [SCN5A], and L-type calcium [Cav1.2]) stably expressed in human embryonic kidney cells (HEK293) are used as test systems, and each system is tested using 2-3 replicates in the conventional patch clamp assay.
Ion channel membrane current recordings are made with a Multiclamp 700 series integrating patch-clamp amplifier (Axon Instruments, Foster City, Calif.) using the whole-cell variant of the patch-clamp technique.
Cells expressing hERG, sodium [SCN5A], or L-type calcium [Cav1.2] channels are placed in a plexiglass bath chamber, mounted on the stage of an inverted microscope, and perfused continuously with bath solution. […]
Initially, a current-voltage relationship is generated in the control bath solution using the following voltage protocol. hERG currents are elicited by 2 second step depolarizations applied from a holding potential of −80 mV to test potentials ranging from −70 mV to +60 mV. […] The peak tail current is monitored until a new steady-state in the presence of test article was achieved. This is followed by the application of the next higher concentration of test article to be tested, and is repeated until all concentrations of test article have been evaluated. Effects of test article on hERG channel are calculated by measuring inhibition of peak tail currents. […]

For a further series, the system named is male C57BL/6J mice. The series can be described thus: Mouse oral glucose tolerance test. The class given is in vivo. The note with it: for Glucose Lowering: at the minimally efficacious dose, plasma glucose AUC in oGTT; for Minimally efficacious Dose: oGTT in C57BL/6J mice. The procedure: Mouse Oral Glucose Tolerance Test
Twenty four (24) male C57BL/6J mice (8-10 weeks old, average weight 28 g) were randomized into 4 groups (1 mouse/cage) of 6 mice per group based on fed plasma glucose and body weight. Prior to initiating the study, mice were fasted overnight and the next morning they were weighed and placed in the experimental lab. After 30 min in the environment, the mice were bled via tail tip at −60 min and immediately given their first oral administration of vehicle (40% PEG400, 10% Cremophor EL, 50% water) or compound solutions (5 ml/kg). At time 0 the mice were bled and given 50% glucose (2 g/kg) to initiate the oral glucose tolerance test (oGTT). The mice were bled 30, 60 and 120 min after the glucose load. Blood samples were drawn into potassium EDTA, placed on ice during the study and subsequently centrifuged for 10 min at 3000 rpm at 4° C. Plasma samples were diluted 11-fold for glucose analysis in the COBAS MIRA® System (Roche Diagnostics). Area under the curve was calculated from the plasma glucose time course data using the trapezoid rule with fasting plasma glucose as the baseline (GraphPad Prism Software). The statistical significance of the changes in the glucose AUCs resulting from the different treatments was determined by one-way ANOVA followed by Dunnett's test using the vehicle group as the control (JMP software, release 5.1.2).
Find below in Table 7 data for compared compounds (See WO 2009/012275 A1).

Series [1] in a line: Compound bioavailability assay in rats. In kind it is in vivo. The note with it: male, Sprague-Dawley, plasma, rat, oral. The procedure:
Compound Bioavailability Assays
Male Sprague-Dawley rats (270-350 g) were used in the pharmokinetic studies. Two (2) groups of animals (N=3 per group) were fasted overnight and one group received test compound as an IV infusion dose (1 mg/kg over 10 minutes) via a jugular vein in PEG-400/propylene glycol/ethanol (50:40:10) or Cremophor-EL/PEG400/water (10:40:50, v/v/v). The other group received test compound by oral gavage (2 or 5 mg/kg) as either nano-suspension in Pluronic F-108/polyvinylpyrrolidinone/water (1:2.5:96.5, v/v/v) or in Methocel A4M/Tween 80/water (0.5:0.1:99.4, v/v/v) as suspension (partical size: d50=0.960 μm; d90=4.4 μm) for oral dosing. […]
Pharmacokinetic parameters were obtained by non-compartmental analysis of plasma concentration vs. time data (KINETICA™ software, Version 5.0, Thermo Fisher Scientific Corporation, Philadelphia, Pa.). The peak concentration (Cmax) and time for Cmax (Tmax) were recorded directly from experimental observations. The area under the curve from time zero to the last sampling time [AUC(0-T)] and the area under the curve from time zero to infinity [AUC(INF)] were calculated using a combination of linear and log trapezoidal summations. […] Estimations of AUC and T-HALF were made using a minimum of 3 timepoints with quantifiable concentrations. […]

Chain of hERG (Q12809 whole entry): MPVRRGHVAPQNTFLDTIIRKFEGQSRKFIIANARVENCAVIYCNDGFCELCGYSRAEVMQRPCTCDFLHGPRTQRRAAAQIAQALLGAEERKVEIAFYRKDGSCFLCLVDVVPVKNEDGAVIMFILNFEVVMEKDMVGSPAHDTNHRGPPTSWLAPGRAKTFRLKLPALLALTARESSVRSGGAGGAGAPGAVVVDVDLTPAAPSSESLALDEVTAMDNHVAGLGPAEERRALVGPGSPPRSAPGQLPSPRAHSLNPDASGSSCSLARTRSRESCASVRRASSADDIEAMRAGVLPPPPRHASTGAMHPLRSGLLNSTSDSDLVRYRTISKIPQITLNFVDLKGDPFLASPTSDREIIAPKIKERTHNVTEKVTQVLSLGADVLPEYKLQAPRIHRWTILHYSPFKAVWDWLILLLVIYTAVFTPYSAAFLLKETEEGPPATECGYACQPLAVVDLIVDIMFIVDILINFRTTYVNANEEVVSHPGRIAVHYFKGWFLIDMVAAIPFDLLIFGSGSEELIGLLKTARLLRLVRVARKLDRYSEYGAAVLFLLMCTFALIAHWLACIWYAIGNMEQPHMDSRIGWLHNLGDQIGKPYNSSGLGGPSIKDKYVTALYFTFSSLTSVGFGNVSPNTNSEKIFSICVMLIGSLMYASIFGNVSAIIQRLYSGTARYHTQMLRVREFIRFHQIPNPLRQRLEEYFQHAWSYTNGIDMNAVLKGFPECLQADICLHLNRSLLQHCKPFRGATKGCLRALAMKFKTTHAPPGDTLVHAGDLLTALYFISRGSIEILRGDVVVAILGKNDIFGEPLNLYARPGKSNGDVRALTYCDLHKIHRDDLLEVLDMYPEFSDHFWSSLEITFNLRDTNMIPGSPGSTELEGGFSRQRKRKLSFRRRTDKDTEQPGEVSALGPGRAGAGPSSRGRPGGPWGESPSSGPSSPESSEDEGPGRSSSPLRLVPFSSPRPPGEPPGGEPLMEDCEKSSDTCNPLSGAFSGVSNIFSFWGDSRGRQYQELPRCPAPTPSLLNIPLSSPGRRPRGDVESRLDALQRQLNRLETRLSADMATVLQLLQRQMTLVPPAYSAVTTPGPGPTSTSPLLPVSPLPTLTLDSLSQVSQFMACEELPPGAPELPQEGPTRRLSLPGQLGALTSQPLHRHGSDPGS

In the case of `Cc1nc(-n2cc(Cl)c(OC3CCN(c4ncc(Cl)cn4)CC3)cc2=O)ccc1N1CC[C@@H](O)C1=O` [Example 4, (R)-5-chloro-4-((1-(5-chloropyrimidin-2-yl)piperidin-4-yl)oxy)-5′-(3-hydroxy-2-oxopyrrolidin-1-yl)-6′-methyl-2H-[1,2′-bipyridin]-2-one], the inhibition (as a rule, the change of the read-out against control, counted positive when it falls) at 30 µM against hERG worked out at 40%. In the series with male C57BL/6J mice, the “Glucose Lowering” value is given as −39% and the “Minimally efficacious Dose” value is 0.03 mg/kg. For the same molecule, the bioavailability in series [1] (2 mg/kg as a microsuspension) amounted to 122%.
Consider `Cc1nc(-n2cc(Cl)c(OC3CCN(c4ncc(Cl)cn4)CC3)cc2=O)ccc1N1CC[C@H](O)C1=O` [Example 3, (S)-5-chloro-4-((1-(5-chloropyrimidin-2-yl)piperidin-4-yl)oxy)-5′-(3-hydroxy-2-oxopyrrolidin-1-yl)-6′-methyl-2H-[1,2′-bipyridin]-2-one], for which the inhibition at 30 µM on hERG turned out to be 33%. In the series on male C57BL/6J mice, the “Glucose Lowering” value is −26% and the “Minimally efficacious Dose” value amounted to 0.03 mg/kg. In addition, the bioavailability in series [1] (5 mg/kg as a microsuspension) is 120%.
